The source made the active and inactive calls. The rule behind the calls is not given here.
Experiments:
[1] = tested on: BV-2; assay: Antineuroinflammatory activity in LPS induced mouse BV-2 cells assessed as inhibition of NO production pretreated for 3 hrs followed by LPS addition and measured after 21 hrs by griess reagent based assay; assay type: functional, cell-based
[2] = Cytotoxicity against mouse BV-2 cells assessed as cell viability at 40 uM measured after 24 hrs by MTT assay relative to control; assay type: toxicity, cell-based; details: read-out: Activity
[3] = organism: Danio rerio; assay: Inhibition of LPS-induced ROS stress in Zebrafish embryo model assessed as reduction in ROS expression by measuring green fluorescence intensity at 30 uM pretreated for 2 hrs followed by LPS stimulation and measured after 12 hrs by H2DCF-DA staining based fluorescence microscopy analysis; assay type: functional, organism-based; details: time 14.0 hrs
[4] = tested on: BV-2; assay: Cytotoxicity against mouse BV-2 cells assessed as cell viability at 40 uM measured after 24 hrs by MTT assay; assay type: toxicity, cell-based; details: bv-2, 24 h
[5] = tested on: BV-2; assay: Antineuroinflammatory activity in LPS-induced mouse BV-2 cells assessed as suppression of p-IkappaBalpha/IkappaBalpha ratio at 20 uM preincubated for 3 hrs followed by LPS stimulation and measured after 21 hrs by Western blot analysis (reference value: 123+/-8%); assay type: functional
[6] = tested on: BV-2; assay: Antineuroinflammatory activity in LPS induced mouse BV-2 cells assessed as inhibition of NO production at 20 uM pretreated for 3 hrs followed by LPS addition and measured after 21 hrs by griess reagent based assay relative to control; assay type: functional; design: scale not given: the % may be the effect or the level left; details: time 24 hrs
[7] = tested on: BV-2; assay: Antineuroinflammatory activity in LPS-induced mouse BV-2 cells assessed as suppression of iNOS expression at 20 uM preincubated for 3 hrs followed by LPS stimulation and measured after 21 hrs by Western blot analysis (reference value: 524 +/-15%); assay type: functional; details: time 24 hrs
[8] = tested on: BV-2; assay: Antineuroinflammatory activity in LPS-induced mouse BV-2 cells assessed as reduction in PGE2 cytokine production at 20 uM preincubated for 3 hrs followed by LPS stimulation and measured after 21 hrs by ELISA method relative to control; assay type: functional; design: scale not given: the % may be the effect or the level left; details: time 24 hrs
[9] = tested on: BV-2; assay: Antineuroinflammatory activity in LPS-induced mouse BV-2 cells assessed as reduction in IL-6 expression at 20 uM preincubated for 3 hrs followed by LPS stimulation and measured after 21 hrs by ELISA method relative to control; assay type: functional; design: scale not given: the % may be the effect or the level left; details: time 24 hrs
[10] = tested on: BV-2; assay: Antineuroinflammatory activity in LPS-induced mouse BV-2 cells assessed as reduction in PGE2 cytokine production at 5 uM preincubated for 3 hrs followed by LPS stimulation and measured after 21 hrs by ELISA method relative to control; assay type: functional; design: scale not given: the % may be the effect or the level left; details: time 24 hrs
[11] = tested on: BV-2; assay: Antineuroinflammatory activity in LPS-induced mouse BV-2 cells assessed as reduction in TNF-alpha expression at 5 uM preincubated for 3 hrs followed by LPS stimulation and measured after 21 hrs by ELISA method relative to control; assay type: functional; design: scale not given: the % may be the effect or the level left; details: time 24 hrs
[12] = tested on: BV-2; assay: Antineuroinflammatory activity in mouse BV-2 cells assessed as reversal of LPS-induced cell thickening measured after 24 hrs by microscope based analysis; assay type: functional
[13] = tested on: BV-2; assay: Antineuroinflammatory activity in LPS-induced mouse BV-2 cells assessed as upregulation of CAT expression at 20 uM preincubated for 3 hrs followed by LPS stimulation and measured after 21 hrs by Western blot analysis relative to control; assay type: functional; details: time 24 hrs
[14] = tested on: BV-2; assay: Antineuroinflammatory activity in LPS-induced mouse BV-2 cells assessed as reduction in TNF-alpha expression at 20 uM preincubated for 3 hrs followed by LPS stimulation and measured after 21 hrs by ELISA method relative to control; assay type: functional; design: scale not given: the % may be the effect or the level left; details: time 24 hrs
[15] = tested on: BV-2; assay: Antineuroinflammatory activity in LPS-induced mouse BV-2 cells assessed as decrease in ratio of nuclear p65 to cytoplasmic p65 at 20 uM preincubated for 3 hrs followed by LPS stimulation and measured after 21 hrs by Western blot analysis relative to control; assay type: functional; design: scale not given: the % may be the effect or the level left
[16] = Inhibition of ROS production in LPS-induced mouse BV-2 cells as decrease in intracellular ROS production at 20 uM preincubated for 3 hrs followed by LPS stimulation and measured after 21 hrs by DCFH-DA staining based microscopic analysis relative to control; assay type: functional; details: time 24 hrs
[17] = Inhibition of ROS production in LPS-induced mouse BV-2 cells as decrease in intracellular ROS production at 5 uM preincubated for 3 hrs followed by LPS stimulation and measured after 21 hrs by DCFH-DA staining based microscopic analysis relative to control; assay type: functional; details: time 24 hrs
[18] = tested on: BV-2; assay: Antineuroinflammatory activity in LPS-induced mouse BV-2 cells assessed as suppression of TLR4 expression at 20 uM preincubated for 3 hrs followed by LPS stimulation and measured after 21 hrs by Western blot analysis (reference value: 414+/-14%); assay type: functional; details: time 24 hrs
[19] = tested on: BV-2; assay: Antineuroinflammatory activity in LPS-induced mouse BV-2 cells assessed as reduction in IL-6 expression at 5 uM preincubated for 3 hrs followed by LPS stimulation and measured after 21 hrs by ELISA method relative to control; assay type: functional; design: scale not given: the % may be the effect or the level left; details: time 24 hrs
[20] = tested on: BV-2; assay: Antineuroinflammatory activity in LPS-induced mouse BV-2 cells assessed as reduction in IL-6 expression at 10 uM preincubated for 3 hrs followed by LPS stimulation and measured after 21 hrs by ELISA method relative to control; assay type: functional; design: scale not given: the % may be the effect or the level left; details: time 24 hrs
[21] = Antioxidant activity assessed as ABTS radical scavenging activity by absorbance based analysis; assay type: functional
[22] = organism: Danio rerio; assay: Inhibition of LPS-induced ROS stress in Zebrafish embryo model assessed as reduction in ROS expression by measuring green fluorescence intensity at 15 to 30 uM pretreated for 2 hrs followed by LPS stimulation and measured after 12 hrs by H2DCF-DA staining based fluorescence microscopy analysis; assay type: functional, organism-based; details: dose 15-30 µM, time 14.0 hrs
[23] = tested on: BV-2; assay: Inhibition of ROS production in LPS-induced mouse BV-2 cells as decrease in intracellular ROS production preincubated for 3 hrs followed by LPS stimulation and measured after 21 hrs by DCFH-DA staining based microscopic analysis relative to control; assay type: functional, cell-based; details: dose 5-20 µM, time 24.0 hrs
[24] = tested on: BV-2; assay: Antineuroinflammatory activity in LPS-induced mouse BV-2 cells assessed as reduction in TNF-alpha expression at 10 uM preincubated for 3 hrs followed by LPS stimulation and measured after 21 hrs by ELISA method relative to control; assay type: functional; design: scale not given: the % may be the effect or the level left; details: time 24 hrs
[25] = tested on: BV-2; assay: Antineuroinflammatory activity in LPS-induced mouse BV-2 cells assessed as suppression of TAK1 expression at 20 uM preincubated for 3 hrs followed by LPS stimulation and measured after 21 hrs by Western blot analysis (reference value: 225+/-10%); assay type: functional; details: time 24 hrs
[26] = tested on: BV-2; assay: Antineuroinflammatory activity in LPS-induced mouse BV-2 cells assessed as upregulation of Nrf2 expression at 20 uM preincubated for 3 hrs followed by LPS stimulation and measured after 21 hrs by Western blot analysis relative to control; assay type: functional; details: time 24 hrs
[27] = Inhibition of ROS production in LPS-induced mouse BV-2 cells as decrease in intracellular ROS production at 10 uM preincubated for 3 hrs followed by LPS stimulation and measured after 21 hrs by DCFH-DA staining based microscopic analysis relative to control; assay type: functional; details: time 24 hrs
[28] = tested on: BV-2; assay: Antineuroinflammatory activity in LPS-induced mouse BV-2 cells assessed as upregulation of HO-1 expression at 20 uM preincubated for 3 hrs followed by LPS stimulation and measured after 21 hrs by Western blot analysis relative to control; assay type: functional; details: time 24 hrs
[29] = tested on: BV-2; assay: Antineuroinflammatory activity in mouse BV-2 cells assessed as reversal of LPS-induced enlarged cell bodies measured after 24 hrs by microscope based analysis; assay type: functional
[30] = tested on: BV-2; assay: Antineuroinflammatory activity in LPS-induced mouse BV-2 cells assessed as reduction in PGE2 cytokine production at 10 uM preincubated for 3 hrs followed by LPS stimulation and measured after 21 hrs by ELISA method relative to control; assay type: functional; design: scale not given: the % may be the effect or the level left; details: time 24 hrs
[31] = tested on: BV-2; assay: Antineuroinflammatory activity in mouse BV-2 cells assessed as reversal of LPS-induced cell shortening measured after 24 hrs by microscope based analysis; assay type: functional
[32] = tested on: BV-2; assay: Antineuroinflammatory activity in LPS-induced mouse BV-2 cells assessed as suppression of COX-2 expression at 20 uM preincubated for 3 hrs followed by LPS stimulation and measured after 21 hrs by Western blot analysis (reference value: 172 +/-9%); assay type: functional; details: time 24 hrs
[33] = tested on: BV-2; assay: Antineuroinflammatory activity in LPS-induced mouse BV-2 cells assessed as downregulation of keap1 expression at 20 uM preincubated for 3 hrs followed by LPS stimulation and measured after 21 hrs by Western blot analysis relative to control; assay type: functional; details: time 24 hrs
[34] = Antioxidant activity assessed as DPPH radical scavenging activity by absorbance based analysis; assay type: functional

CC(=O)NCC(=O)c1c[nH]c2ccccc12
IC50 [1]: > 20 µM
viability at 24 h, 40 µM [2]: > 98%

COC(=O)c1cccc2nc3c([C@H](O)[C@@H](C)C(=O)OC)cccc3nc12
IC50 [1]: 8.3 µM
viability at 24 h, 40 µM [2]: > 98%

C[C@@H]1C[C@H]2[C@@H]3CCC4=CC(=O)C=C[C@]4(C)[C@@]3(F)[C@@H](O)C[C@]2(C)[C@@]1(O)C(=O)CO
inhibition [3]: inactive

CSc1nc(NC/C=C(/C)CO)c2ncn([C@@H]3O[C@H](COC(C)=O)[C@@H](O)[C@H]3O)c2n1
IC50 [1]: > 20 µM
viability at 24 h, 40 µM [2]: > 98%

CC(C)C[C@@H]1NC(=O)[C@H](Cc2c[nH]c3ccccc23)NC1=O
IC50 [1]: > 20 µM
viability at 24 h, 40 µM [2]: > 98%

O=C1CCCCN1Cc1ccco1
IC50 [1]: > 20 µM
viability at 24 h, 40 µM [2]: > 98%

CC(=O)NCCc1c[nH]c2ccccc12 [NB-ACETYLTRYPTAMINE]
IC50 [1]: > 20 µM
viability at 24 h, 40 µM [2]: > 98%

O=C(O)c1cccc2nc3ccccc3nc12 [PHENAZINE-1-CARBOXYLIC ACID]
IC50 [1]: 8.4 µM
viability at 24 h, 40 µM [2]: > 98%

COC(=O)c1cccc2nc3c([C@@H](C)O)cccc3nc12
IC50 [1]: 8.5 µM
viability at 24 h, 40 µM [2]: > 98%

CC(=O)OC[C@H]1O[C@@H](n2cnc3c(N)ncnc32)[C@H](O)[C@@H]1O
IC50 [1]: > 20 µM
viability at 24 h, 40 µM [2]: > 98%

O=C(O)c1ccc[nH]1
IC50 [1]: 19.5 µM
viability at 24 h, 40 µM [2]: > 98%

COC(=O)c1cccc2nc3c([C@H](O)[C@H](C)C(=O)OC)cccc3nc12
IC50 [1]: 8.2 µM
viability at 24 h, 40 µM [2]: > 98%

COC(=O)c1cc2c([nH]c3ccccc32)c(-c2ccc(CO)o2)n1
Activity [4]: Toxic

CC(=O)NCCC(=O)Nc1cccs1
IC50 [1]: 17.4 µM
viability at 24 h, 40 µM [2]: > 98%

O=C1CCCN1Cc1ccco1
IC50 [1]: > 20 µM
viability at 24 h, 40 µM [2]: > 98%

COC(=O)c1cccc2nc3ccccc3nc12
IC50 [1]: 8.6 µM
viability at 24 h, 40 µM [2]: > 98%

O=c1c(O)c(-c2ccc(O)c(O)c2)oc2cc(O)cc(O)c12 [QUERCETIN]
IC50 [1]: 9.8 µM

CSC(=N)N
IC50 [1]: 7.5 µM

O=C1N[C@@H](Cc2c[nH]c3ccccc23)C(=O)N2CCC[C@@H]12 [BREVIANAMIDE F]
IC50 [1]: > 20 µM
viability at 24 h, 40 µM [2]: > 98%

COC(=O)c1cccc2nc3c([C@H](OC(=O)c4ccc(Br)cc4)[C@@H](C)C(=O)OC)cccc3nc12
Activity [4]: Toxic

COC(=O)[C@H](C)[C@@H](O)c1cccc2nc3c(C(=O)O)cccc3nc12
Activity [5]: 36%
Activity [6]: 70%
Activity [7]: 303%
Activity [8]: 62%
Activity [9]: 49%
Activity [10]: 34%
IC50 [1]: 8 µM
Activity [11]: 10%
viability at 24 h, 40 µM [2]: > 98%
Activity [12]: Dose-Dependent Effect
Activity [13]: 10%
Activity [14]: 47%
Activity [15]: 60%
inhibition at 20 µM [16]: 66%
inhibition at 5 µM [17]: 8%
Activity [18]: 73%
Activity [19]: 20%
Activity [20]: 38%
EC50 [21]: 900 µM
inhibition [22]: Active
inhibition [23]: Dose-Dependent Effect
Activity [24]: 33%
Activity [25]: 38%
Activity [26]: 67%
inhibition at 10 µM [27]: 30%
Activity [28]: 54%
Activity [29]: Dose-Dependent Effect
Activity [30]: 47%
Activity [31]: Dose-Dependent Effect
Activity [32]: 105%
Activity [33]: 36%
EC50 [34]: 1900 µM

COC(=O)C[C@@H](O)c1cccc2nc3c(C(=O)OC)cccc3nc12
IC50 [1]: 8.4 µM
viability at 24 h, 40 µM [2]: > 98%

From ChEMBL document CHEMBL5584315, “Evaluation of Phenazine Derivatives from the Lichen-Associated Streptomyces flavidovirens as Potent Antineuroinflammatory Agents In Vitro and In Vivo” (J Nat Prod, 2024)
